Data reported in patent US20260001889A1, “COMPOSITIONS USEFUL FOR MODULATING SPLICING” (Skyhawk Therapeutics, Inc., priority 2022, published 2026).

test system: ATXN3 transcripts containing exon 4; test: ATXN3 Quantitative Splicing Assay (qPCR, E4E5 primers/probe); type: cell-based; conditions: Homo sapiens, SK-N-MC cells, compounds for 24 h
Description: Example 34: ATXN3 Quantitative Splicing Assay
Human neuroblastoma SK-N-MC cells were plated in 384-well plates at 20,000 cells/well. Twenty-four hours after plating, cells were treated with compounds for 24 h at appropriate concentrations ranging from 30 μM to 0.6 nM (0.300 DMSO). Treated cells were lysed in 15 μL of lysis buffer, and cDNA was synthesized using the Fast Advanced Cells-to-Ct kit. Two […] of each cDNA was used in qPCR reactions to confirm the exon 4 skipped transcripts of ATXN3. A second set of primers/probe E4E5 was used to detect the transcripts containing exon 4. The third set of primers/probe E8E9 was used to detect total gene level of ATXN3. The qPCR reactions were prepared in 384-well plates in 10 μL volume, using TaqMan™ Fast Advanced Master Mix with primers and probes shown in the table below. Reactions were run in a Quant Studio 6 qPCR instrument with default settings.
The primers and probes are listed below in Table 4.

| Structure (SMILES) | IC50 [nM] |
| --- | --- |
| N[C@H]1CCCC[C@@H]1c1oc2c(NCc3cccs3)cc(Cl)nc2c1Br [Compound 174, 2-[(1,2S)-2-aminocyclohexyl]-3-bromo-5-chloro-7-thenylamino-1-oxa-4-azaindene] | 0.01 to 100 |
| N[C@@H]1CCCC[C@H]1c1oc2c(NCc3cccs3)cc(Cl)nc2c1Br [Compound 176, 2-[(1R,2R)-2-aminocyclohexyl]-3-bromo-5-chloro-7-thenylamino-1-oxa-4-azaindene] | 501 to 5000 |
| C[C@H](N)Cc1oc2c(NCc3ccco3)cc(Cl)nc2c1-c1ncc(C(N)=O)o1 [Compound 365, 2-{2-[(2S)-2-aminopropyl]-5-chloro-7-[(furan-2-ylmethyl)amino]furo[3,2-b]pyridin-3-yl}-1,3-oxazole-5-carboxamide] | 10000 to 40000 |
| CNC(=O)c1c(C[C@H](C)N)oc2c(NCc3ccco3)cc(Cl)nc12 [Compound 358, 2-[(2S)-2-aminopropyl]-5-chloro-7-[(furan-2-ylmethyl)amino]-N-methylfuro[3,2-b]pyridine-3-carboxamide] | 10000 to 40000 |
| COc1cc(CNc2cc(Cl)nc3c(Br)c(C[C@H](C)N)oc23)ccn1 [Compound 361, 2-[(S)-2-aminopropyl]-3-bromo-5-chloro-7-{[(2-methoxy-4-pyridyl)methyl]amino}-1-oxa-4-azaindene] | 10000 to 40000 |
| Cc1c(C[C@H](C)N)oc2c(NCc3cccs3)cc(F)nc12 [Compound 404, 2-[(S)-2-aminopropyl]-5-fluoro-3-methyl-7-thenylamino-1-oxa-4-azaindene] | 101 to 500 |
| C[C@H](N)Cc1oc2c(NCc3ccco3)cc(Cl)nc2c1-c1ncc(C#N)o1 [Compound 366, 2-{2-[(2S)-2-aminopropyl]-5-chloro-7-[(furan-2-ylmethyl)amino]furo[3,2-b]pyridin-3-yl}-1,3-oxazole-5-carbonitrile] | 10000 to 40000 |

Next, values leading:

| IC50 [nM] | Structure (SMILES) |
| --- | --- |
| 101 to 500 | N[C@H]1COC[C@@H]1c1oc2c(NCc3cccs3)cc(Cl)nc2c1Br [Compound 373, 2-[(3R,4R)-4-aminotetrahydro-3-furyl]-3-bromo-5-chloro-7-thenylamino-1-oxa-4-azaindene] |
| 501 to 5000 | Clc1cc(NCc2cccs2)c2oc(OCC3CCC3)c(Br)c2n1 [Compound 368, 3-bromo-5-chloro-2-(cyclobutylmethoxy)-N-(thiophen-2-ylmethyl)furo[3,2-b]pyridin-7-amine] |
| 101 to 500 | N[C@H]1CC[C@@H]1c1oc2c(NCc3cccs3)cc(Cl)nc2c1Br (racemic) [Compound 367, 2-(2-aminocyclobutyl)-3-bromo-5-chloro-N-(thiophen-2-ylmethyl)furo[3,2-b]pyridin-7-amine] |
| 5000 to 10000 | COCc1oc2c(NCc3cccs3)cc(Cl)nc2c1Br [Compound 360, 3-bromo-5-chloro-2-(methoxymethyl)-N-(thiophen-2-ylmethyl)furo[3,2-b]pyridin-7-amine] |
| 101 to 500 | N[C@H]1CCC(F)(F)C[C@@H]1c1oc2c(NCc3cccs3)cc(Cl)nc2c1Br [Compound 380, 2-[(1S,2S)-2-amino-5,5-difluorocyclohexyl]-3-bromo-5-chloro-7-thenylamino-1-oxa-4-azaindene] |

test system: ATXN3-HiBiT protein; test: ATXN3 Total Protein Assay (Kelly-ATXN3-HiBiT luminescence); type: cell-based; conditions: Kelly-ATXN3-HiBiT cells, 48 h after addition of compound
Description: Example 36: ATXN3 Total Protein Assay
To monitor ATXN3 protein levels by luminescence, a Kelly-ATXN3-HiBiT cell line with homozygous knock-in of HiBiT at the C-terminus of the endogenous ATXN3 gene was used (knock-in of the HiBiT-tag coding sequence SEQ ID NO. 14: 5′[…]3′ into exon 11 of ATXN3-position 1114 of ATXN3 RefSeq NM_004993.6). Manipulations of the Kelly-ATXN3-HiBiT cell line that result in downregulation of the ATXN3-HiBiT protein (through modulation of ATXN3-HiBiT pre-mRNA splicing) can be followed by monitoring the luminescence signal of the HiBiT tag using the Nano Glo HiBiT Lytic Detection System (Promega, #N3050). Kelly-ATXN3-HiBiT cells were maintained in RPMI 1640 w/Glutamax (Gibco, #61870010), 10% FBS (Sigma Aldrich, #F8687), 1% Penicillin/Streptomycin (Gibco, #15140-122) at 37° C., 5% CO2. To assess HiBiT-luminescence signal upon compound treatment, 2000 Kelly-ATXN3-HiBiT cells were seeded per well in 384 plate format. Compounds were added 24 h after seeding. ATXN3-HiBiT-luminescence signal was read out 48 h after addition of the compound using the Nano Glo HiBiT Lytic Detection System (Promega, #N3050) according to the manufacturer's instructions. To control for cell viability, an identically prepared sister plate was read out with the CellTiter-Glo® 2.0 Assay (Promega, #G9243) according to the manufacturer's instructions. Fold changes of ATXN3-HiBiT-luminescence and of CellTiter-Glo viability signals were calculated relative to a DMSO control condition.

| Structure (SMILES) | EC50 [nM] |
| --- | --- |
| COCC[C@H](N)Cc1oc2c(NCc3cccs3)cc(Cl)nc2c1Cl [Compound 274, 2-[(S)-2-amino-4-methoxybutyl]-3,5-dichloro-7-thenylamino-1-oxa-4-azaindene] | 101 to 500 |
| C[C@H](N)Cc1oc2c(NCc3ccc(F)c(F)c3F)cc(Cl)nc2c1Br [Compound 351, 2-[(S)-2-aminopropyl]-3-bromo-5-chloro-7-{[(2,3,4-trifluorophenyl)methyl]amino}-1-oxa-4-azaindene] | 10000 to 40000 |
| COc1cc(CNc2cc(Cl)nc3c(Br)c(C[C@H](C)N)oc23)ccc1F [Compound 343, 2-[(S)-2-aminopropyl]-3-bromo-5-chloro-7-{[(4-fluoro-3-methoxyphenyl)methyl]amino}-1-oxa-4-azaindene] | 501 to 5000 |
| [2H]C([2H])(c1oc2c(NCc3cccs3)cc(Cl)nc2c1Br)[C@H](C)N [Compound 292, 2-[(S)-2-amino(1,1-^2H2)propyl]-3-bromo-5-chloro-7-thenylamino-1-oxa-4-azaindene] | 0.01 to 100 |
